The text below walks through data of patent publication US12630492B2, “Cannabinoid derivatives” (CANOPY GROWTH CORPORATION, priority 2019, dated 2026).

For one test, the target named is T1, human CB1 receptor (Homo sapiens, UniProt P21554).
T1 construct: host or cells: CHO-K1 (Chinese hamster ovary) cells, stably transfected; membranes prepared in house
As to the kind of experiment: CB1 radioligand competitive binding assay ([3H]CP 55,940 displacement). The following applies: [3H]CP 55,940 displacement, membranes of CHO-K1 cells expressing human CB1 receptor; read-out: CB1 IC50.

Another test concerns the target T2, human CB2 receptor (Homo sapiens, UniProt P34972).
T2 construct: host or cells: CHO-K1 (Chinese hamster ovary) cells, stably transfected; membranes prepared in house
As to the kind of experiment: CB2 radioligand competitive binding assay ([3H]CP 55,940 displacement). The settings on record: for IC50: [3H]CP 55,940 displacement, membranes of CHO-K1 cells expressing human CB2 receptor, read-out: CB2 IC50; for Selectivity CB2: fold difference between CB1 and CB2 binding, printed in column of receptor with higher affinity, 1.00 in both = same affinity.

What is called IC50 is the concentration that gives 50% inhibition.

T1 sequence (P21554 whole entry): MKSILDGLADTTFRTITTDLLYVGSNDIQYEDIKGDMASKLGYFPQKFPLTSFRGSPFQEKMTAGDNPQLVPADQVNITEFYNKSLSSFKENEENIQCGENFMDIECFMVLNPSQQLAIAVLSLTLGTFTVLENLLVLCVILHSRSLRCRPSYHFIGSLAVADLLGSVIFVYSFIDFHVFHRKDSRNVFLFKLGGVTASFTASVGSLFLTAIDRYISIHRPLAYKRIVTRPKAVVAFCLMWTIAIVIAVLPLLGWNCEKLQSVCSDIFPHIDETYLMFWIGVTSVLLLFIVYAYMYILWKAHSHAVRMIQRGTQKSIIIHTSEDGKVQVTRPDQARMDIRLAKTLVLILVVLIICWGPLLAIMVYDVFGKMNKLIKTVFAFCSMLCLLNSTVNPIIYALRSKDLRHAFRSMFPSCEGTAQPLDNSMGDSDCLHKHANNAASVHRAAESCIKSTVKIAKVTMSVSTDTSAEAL
T2 sequence (P34972 whole entry): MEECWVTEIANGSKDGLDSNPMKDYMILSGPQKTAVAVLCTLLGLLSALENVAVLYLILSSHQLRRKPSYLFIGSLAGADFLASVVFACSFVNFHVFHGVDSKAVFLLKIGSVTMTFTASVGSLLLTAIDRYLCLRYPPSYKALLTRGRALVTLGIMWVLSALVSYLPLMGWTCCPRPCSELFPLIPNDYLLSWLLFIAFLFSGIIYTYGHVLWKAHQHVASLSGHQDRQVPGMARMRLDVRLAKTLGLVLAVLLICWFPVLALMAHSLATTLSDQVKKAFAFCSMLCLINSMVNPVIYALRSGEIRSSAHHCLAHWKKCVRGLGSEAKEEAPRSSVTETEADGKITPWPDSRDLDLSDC

`CCCCCc1cc(OCOCCOC)c(-c2cccc(C)c2)c(OCOCCOC)c1` [2′a, 2,6-bis((2-methoxyethoxy)methoxy)-3′-methyl-4-pentyl-1,1′-biphenyl]: the IC50 on human CB1 receptor was more than 10000 nM. On human CB2 receptor, the IC50 lay in the range of 50 to 990 nM and the “Selectivity CB2” value turned out to be 19.73.
As to `CCCCCc1cc(OCOCCOC)c(C2C=C(C)CCC2)c(OCOCCOC)c1` (stereo not shown) [2′c, 2′,6′-bis((2-methoxyethoxy)methoxy)-5-methyl-4′-pentyl-1,2,3,4-tetarhydro-1,1′-biphenyl], the IC50 on human CB1 receptor fell in the range of 50 to 990 nM. Moreover, on human CB2 receptor, the IC50 was less than 50 nM and the “Selectivity CB2” value worked out at 6.38.
For the molecule `C=C(C)C1CCC(C)=CC1c1c(OCOCCOC)cc(CCCCC)cc1OCOCCOC` (stereo not shown) [2′d, 2′,6′-bis((2-methoxyethoxy)methoxy)-5-methyl-4′-pentyl-2-(prop-1-en-2-yl)-1,2,3,4-tetrahydro-1,1′-biphenyl], on human CB1 receptor, the half-inhibitory concentration (IC50) was in the range of 1000 to 9990 nM. In addition, at human CB2 receptor, the IC50 was in the range of 50 to 990 nM and the “Selectivity CB2” value is 2.50.
`CCCCCc1cc(OCOC(=O)C(C)(C)C)c(-c2cccc(C)c2)c(OCOC(=O)C(C)(C)C)c1` [8′a, [3-(2,2-dimethylpropanoyloxymethoxy)-2-(m-tolyl)-5-pentyl-phenoxy]methyl 2,2-dimethylpropanoate]: the IC50 on human CB1 receptor and on human CB2 receptor was 50 to 990 nM in each case. For the same molecule, the “Selectivity CB2” value on human CB2 receptor amounted to 7.14.
`CCCCCc1cc(OCOC(=O)C(C)(C)C)c(C2C=C(C)CCC2)c(OCOC(=O)C(C)(C)C)c1` (stereo not shown) [8′c, ((5′-methyl-4-pentyl-1′,2′,3′,4′-tetrahydro-[1,1′-biphenyl]-2,6-diyl)bis(oxy))bis(methylene)bis(2,2-dimethylpropanoate)]: the IC50 at human CB1 receptor fell in the range of 50 to 990 nM. Further, at human CB2 receptor, the IC50 is less than 50 nM and the “Selectivity CB2” value worked out at 6.38.
As to `C=C(C)C1CCC(C)=CC1c1c(OCOC(=O)C(C)(C)C)cc(CCCCC)cc1OCOC(=O)C(C)(C)C` (stereo not shown) [8′d, ((5′-methyl-4-pentyl-2′-(prop-1-en-2-yl)-1′,2′,3′,4′-tetrahydro-[1,1′-biphenyl]-2,6-diyl)bis(oxy))bis(methylene) bis(2,2-dimethylpropanoate)], the half-maximal inhibitory concentration (IC50) at human CB1 receptor and at human CB2 receptor was 1000 to 9990 nM each time. Moreover, the “Selectivity CB2” value at human CB2 receptor is 2.00.
For `CCCCCc1cc(OCN(C(=O)OC)c2ccccc2)c(-c2cccc(C)c2)c(OCN(C(=O)OC)c2ccccc2)c1` [14′a, dimethyl (((3′-methyl-4-pentyl-[1,1′-biphenyl]-2,6-diyl)bis(oxy))bis(methylene))bis(phenylcarbamate)], the IC50 on human CB1 receptor is 50 to 990 nM. Besides, at human CB2 receptor, the IC50 was 50 to 990 nM and the “Selectivity CB2” value came out at 4.40.
Regarding `CCCCCc1cc(OCN(C(=O)OC)c2ccccc2)c(C2C=C(C)CCC2)c(OCN(C(=O)OC)c2ccccc2)c1` (stereo not shown) [14′c, dimethyl (((5′-methyl-4-pentyl-1′,2′,3′,4′-tetrahydro-[1,1′-biphenyl]-2,6-diyl)bis(oxy))bis(methylene))bis(phenylcarbamate)], the IC50 on human CB1 receptor is 1000 to 9990 nM; on human CB2 receptor it was 50 to 990 nM. For the same molecule, at human CB2 receptor, the “Selectivity CB2” value amounted to 62.50.
For `CCCCCc1cc(OCOCC)c(-c2cccc(C)c2)c(OCOCC)c1` [17′a, 2,6-bis(ethoxymethoxy)-3′-methyl-4-pentyl-1,1′-biphenyl] the same measures were 1000 to 9990 nM, 50 to 990 nM and 8.97.
For `CCCCCc1cc(OCOCC)c(C2C=C(C)CCC2)c(OCOCC)c1` (stereo not shown) [17′c, 2′,6′-bis(ethoxymethoxy)-5-methyl-4′-pentyl-1,2,3,4-tetrahydro-1,1′-biphenyl], the IC50 at human CB1 receptor was 1000 to 9990 nM.
As to `C=C(C)C1CCC(C)=CC1c1c(OCOCC)cc(CCCCC)cc1OCOCC` (stereo not shown) [17′d, 2′,6′-bis(ethoxymethoxy)-5-methyl-4′-pentyl-2-(prop-1-en-2-yl)-1,2,3,4-tetrahydro-1,1′-biphenyl], the IC50 at human CB1 receptor was in the range of 1000 to 9990 nM. At human CB2 receptor, the IC50 was in the range of 50 to 990 nM and the “Selectivity CB2” value came out at 3.03.
